Experimental data taken from US20230024521A1, “JAK INHIBITORS” (Vimalan Biosciences, Inc., priority 2019, published 2023).

Tests used:
Type in all cases: biochemical
[1] = target: JAK2 (Homo sapiens, UniProt O60674); assay: JAK/TYK2 assay (Kinase Glo luminescence): Jak2 kinase assay; conditions: 0.8 nM enzyme, 2 uM ATP, 4 uM pEY, 1 hr; read-out: Jak2 kinase assay: IC50 Geomean
Description: (§1) Example A: JAK/TYK2 Assay 10 mM test compound stock or 1 mM control compound stock (tofocitinib, ruxolitinib or staurosporine) in DMSO was diluted to 0.4 mM in DMSO. A 3-fold series dilution was then performed in DMSO to generate 10 different compound concentrations. The assay was carried out in 384-well white plate. 0.5 μL of 40× compound DMSO solution at different concentrations was mixed with 10 uL 2× enzyme prepared in reaction buffer (20 mM HEPES, 10 mM MgCl2, 0.01% Tween, 1 mM DTT, pH 7.5). 10 uL 2× substrate mixture prepared in reaction buffer was then added to start the reaction. A short spin was done to settle down all solutions to the bottom of the plate. Final concentrations of test compound in the reaction mixture were 10000, 3333, 1111, 370, 123, 41.2, 13.7, 4.57, 1.52 and 0.51 nM, Concentrations of control compound were ten times less. Enzymatic reaction was conducted at 25° C. for 1-2 hours. 10 uL of Kinase Glo Reagents was added to stop the reaction and generate the luminescent signal which was measured using Envision. Luminescence signal was inversely related to kinase activity. […] The mixture without any compound was the positive control. [table]

[2] = target: JAK1 (Homo sapiens, UniProt P23458); assay: JAK/TYK2 assay (Kinase Glo luminescence): Jak1 kinase assay; conditions: 7.5 nM enzyme, 2 uM ATP, 30 uM IRS-1, 1 hr
Description: as §1

[3] = target: TYK2 (Homo sapiens, UniProt P29597); assay: JAK/TYK2 assay (Kinase Glo luminescence): Tyk2 kinase assay; conditions: 9 nM enzyme, 2 uM ATP, 30 uM IRS-1, 1 hr; read-out: Tyk2 kinase assay: IC50 Geomean
Description: as §1

Measured: IC50

Chain of JAK2 (O60674 whole entry, species assumed): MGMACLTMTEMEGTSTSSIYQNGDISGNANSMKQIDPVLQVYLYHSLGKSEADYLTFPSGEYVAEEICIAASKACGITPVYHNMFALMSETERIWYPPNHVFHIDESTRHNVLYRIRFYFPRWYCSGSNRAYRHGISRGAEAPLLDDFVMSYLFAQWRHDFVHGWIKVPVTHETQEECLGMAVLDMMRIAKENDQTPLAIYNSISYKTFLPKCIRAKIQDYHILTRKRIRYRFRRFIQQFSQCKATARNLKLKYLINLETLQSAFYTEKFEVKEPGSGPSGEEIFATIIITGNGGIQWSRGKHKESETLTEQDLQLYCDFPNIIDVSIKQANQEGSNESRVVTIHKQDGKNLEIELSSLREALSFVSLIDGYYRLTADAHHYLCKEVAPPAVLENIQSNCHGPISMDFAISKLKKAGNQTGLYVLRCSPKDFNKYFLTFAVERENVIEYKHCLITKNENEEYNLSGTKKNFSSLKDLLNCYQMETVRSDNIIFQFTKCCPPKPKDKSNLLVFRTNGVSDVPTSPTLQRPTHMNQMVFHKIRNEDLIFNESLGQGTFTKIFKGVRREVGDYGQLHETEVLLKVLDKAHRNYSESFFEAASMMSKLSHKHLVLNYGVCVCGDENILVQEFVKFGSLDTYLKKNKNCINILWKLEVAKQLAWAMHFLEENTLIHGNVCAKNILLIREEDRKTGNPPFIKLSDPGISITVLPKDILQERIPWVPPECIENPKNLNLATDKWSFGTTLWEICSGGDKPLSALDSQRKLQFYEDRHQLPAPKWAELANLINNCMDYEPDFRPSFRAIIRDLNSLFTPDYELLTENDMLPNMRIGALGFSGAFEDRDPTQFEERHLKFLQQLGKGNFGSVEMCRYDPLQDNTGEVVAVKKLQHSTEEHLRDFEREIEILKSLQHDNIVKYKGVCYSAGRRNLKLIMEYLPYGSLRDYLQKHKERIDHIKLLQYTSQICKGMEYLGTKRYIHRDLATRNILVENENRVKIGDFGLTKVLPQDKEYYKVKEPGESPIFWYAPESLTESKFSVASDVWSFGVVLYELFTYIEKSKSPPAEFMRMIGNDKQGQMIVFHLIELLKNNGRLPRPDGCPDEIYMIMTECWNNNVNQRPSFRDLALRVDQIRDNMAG
Chain of TYK2 (P29597 whole entry, species assumed): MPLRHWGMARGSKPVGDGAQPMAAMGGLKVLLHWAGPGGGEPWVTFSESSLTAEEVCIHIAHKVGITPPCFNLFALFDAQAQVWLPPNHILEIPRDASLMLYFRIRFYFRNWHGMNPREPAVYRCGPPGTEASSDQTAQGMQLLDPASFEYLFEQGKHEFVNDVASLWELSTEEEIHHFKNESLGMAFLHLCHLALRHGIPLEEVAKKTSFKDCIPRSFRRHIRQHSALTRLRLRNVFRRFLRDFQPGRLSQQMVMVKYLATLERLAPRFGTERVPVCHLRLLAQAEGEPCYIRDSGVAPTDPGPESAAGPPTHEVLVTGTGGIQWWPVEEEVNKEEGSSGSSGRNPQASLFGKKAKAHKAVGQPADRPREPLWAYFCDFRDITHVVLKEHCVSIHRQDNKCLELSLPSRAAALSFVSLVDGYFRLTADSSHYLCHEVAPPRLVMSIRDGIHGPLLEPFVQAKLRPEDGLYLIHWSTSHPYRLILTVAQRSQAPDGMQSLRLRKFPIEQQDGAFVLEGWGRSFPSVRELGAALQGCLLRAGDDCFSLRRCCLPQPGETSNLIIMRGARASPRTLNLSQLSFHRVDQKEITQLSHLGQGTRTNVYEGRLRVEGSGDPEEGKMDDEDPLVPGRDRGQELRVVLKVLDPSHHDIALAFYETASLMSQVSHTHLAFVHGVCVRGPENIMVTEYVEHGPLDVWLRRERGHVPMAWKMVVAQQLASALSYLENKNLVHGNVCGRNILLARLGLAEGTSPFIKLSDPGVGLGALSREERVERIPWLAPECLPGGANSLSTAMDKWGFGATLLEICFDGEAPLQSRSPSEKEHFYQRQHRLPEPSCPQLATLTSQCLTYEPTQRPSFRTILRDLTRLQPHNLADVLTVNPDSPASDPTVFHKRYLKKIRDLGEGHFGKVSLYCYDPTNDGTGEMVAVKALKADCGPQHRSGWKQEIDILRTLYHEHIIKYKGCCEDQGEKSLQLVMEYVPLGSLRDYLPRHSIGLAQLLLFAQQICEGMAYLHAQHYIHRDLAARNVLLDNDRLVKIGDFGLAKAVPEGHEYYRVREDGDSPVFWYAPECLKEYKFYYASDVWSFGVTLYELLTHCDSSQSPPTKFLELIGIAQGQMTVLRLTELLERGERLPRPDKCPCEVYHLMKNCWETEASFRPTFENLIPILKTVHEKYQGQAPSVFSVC
Chain of JAK1 (P23458 whole entry, species assumed): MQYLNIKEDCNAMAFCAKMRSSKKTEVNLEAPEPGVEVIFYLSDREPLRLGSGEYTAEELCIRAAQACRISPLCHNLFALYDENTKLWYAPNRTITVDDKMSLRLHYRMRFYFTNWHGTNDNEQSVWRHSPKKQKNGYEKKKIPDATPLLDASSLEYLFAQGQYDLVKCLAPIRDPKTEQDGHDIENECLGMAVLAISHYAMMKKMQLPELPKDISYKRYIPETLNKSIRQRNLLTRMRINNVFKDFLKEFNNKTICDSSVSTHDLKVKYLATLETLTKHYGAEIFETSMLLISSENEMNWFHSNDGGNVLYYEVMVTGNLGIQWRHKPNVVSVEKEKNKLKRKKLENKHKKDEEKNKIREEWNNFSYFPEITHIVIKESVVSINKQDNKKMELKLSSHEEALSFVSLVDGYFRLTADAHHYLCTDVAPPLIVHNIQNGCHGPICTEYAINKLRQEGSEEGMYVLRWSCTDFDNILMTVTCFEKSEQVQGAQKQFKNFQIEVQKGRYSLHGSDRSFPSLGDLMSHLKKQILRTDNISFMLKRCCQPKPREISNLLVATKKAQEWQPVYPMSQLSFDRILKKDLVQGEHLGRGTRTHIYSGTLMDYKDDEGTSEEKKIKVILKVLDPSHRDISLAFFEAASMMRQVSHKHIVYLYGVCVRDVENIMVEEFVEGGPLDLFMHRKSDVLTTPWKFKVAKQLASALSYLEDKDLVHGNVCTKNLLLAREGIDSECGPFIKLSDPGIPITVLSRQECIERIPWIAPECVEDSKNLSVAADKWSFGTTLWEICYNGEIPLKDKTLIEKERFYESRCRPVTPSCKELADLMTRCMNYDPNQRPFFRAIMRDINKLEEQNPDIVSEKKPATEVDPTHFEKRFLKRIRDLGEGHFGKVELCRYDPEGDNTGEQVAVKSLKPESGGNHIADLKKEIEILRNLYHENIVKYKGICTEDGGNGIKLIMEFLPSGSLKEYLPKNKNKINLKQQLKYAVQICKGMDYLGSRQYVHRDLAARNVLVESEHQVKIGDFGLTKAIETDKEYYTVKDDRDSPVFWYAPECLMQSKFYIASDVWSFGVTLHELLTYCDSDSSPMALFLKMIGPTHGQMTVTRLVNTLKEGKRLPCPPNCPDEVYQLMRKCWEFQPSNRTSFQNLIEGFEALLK

CC[C@H](Cn1ccc2cnc(Nc3cnn(CC(N)=O)c3)nc21)C(C)C [Example 1, (S)-2-(4-((7-(2-ethyl-3-methylbutyl)-7H-pyrrolo[2,3-d]pyrimidin-2-yl)amino)-1H-pyrazol-1-yl) acetamide]
< 100 nM: all assays above

CC[C@H](Cn1ccc2cnc(Nc3cnn(CC(=O)N4CCOC4=O)c3)nc21)C(C)C [Example 3, (5)-3-(2-(4-((7-(2-ethyl-3-methylbutyl)-7H-pyrrolo[2,3-d]pyrimidin-2-yl)amino)-1H-pyrazol-1-yl)acetyl) oxazolidin-2-one]
< 100 nM: all assays above

CCC(CC)Cn1ccc2cnc(Nc3cnn(CC(N)=O)c3)nc21 [Example 7, 2-(4-((7-(2-ethylbutyl)-7H-pyrrolo[2,3-d]pyrimidin-2-yl)amino)-1H-pyrazol-1-yl) acetamide]
< 100 nM: all assays above

CC[C@@H](Cn1ccc2cnc(Nc3cnn(C4CCNC4=O)c3)nc21)C(C)C (stereo partly drawn) [Example 8]
< 100 nM: all assays above
